Reference: patent publication US8129366B2, “VLA-4 inhibitory drug” (Daiichi Sankyo Company, Limited, priority 2005, dated 2012)
Values after ≈ are worked out from the molar mass of the structure shown.

Assays:
[1] = Solubility test in first and second liquid of the Japanese Pharmacopoeia; conditions: Solubility
Procedure: The solubilities of the substance under test in the first liquid (JP1, pH=1.2) of the Japanese Pharmacopoeia and the second liquid (JP2, pH=6.8) of the Japanese Pharmacopoeia, were evaluated.

[2] = target: T1, hα4 and β1 integrins (Homo sapiens, UniProt P05556+P13612); test: In vitro inhibition of binding between CHO cells expressing hα4 and β1 integrins and Eu3+-hVCAM-1 D1D7-IgG; conditions: for Ki: CHO cells expressing hα4 and β1 integrins, Eu3+-hVCAM-1 D1D7-IgG ligand, without HSA; for IC50: in the presence of 3% human serum albumin (HSA final concentration 3%)
T1 construct: expressed in transfected cells; host or cells: CHO cells
Procedure, shortened: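 Transfected CHO cells, cultured 2 days, were incubated with compound and Eu³⁺-hVCAM-1 D1D7-IgG (diluted to 2 nM) for 1 h at room temperature. Buffer was 25 mM HEPES pH 7.5 with 1 mM Ca²⁺, 1 mM Mg²⁺, 4 mM Mn²⁺ and 0.1% BSA, ±3% HSA final. Cells were washed at 4 °C and read by DELFIA time-resolved fluorescence; Ki was derived from IC50 using the Scatchard Kd.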

[3] = first liquid of the Japanese Pharmacopoeia (JP1), pH 1.2, simulated gastric fluid, First liquid of Japanese Pharmacopoeia (μg/mL), JP1, pH=1.2
[4] = second liquid of the Japanese Pharmacopoeia (JP2), pH 6.8, aqueous buffer, Second liquid of Japanese Pharmacopoeia (μg/mL), JP2, pH=6.8

T1 sequence (P13612 34-1032): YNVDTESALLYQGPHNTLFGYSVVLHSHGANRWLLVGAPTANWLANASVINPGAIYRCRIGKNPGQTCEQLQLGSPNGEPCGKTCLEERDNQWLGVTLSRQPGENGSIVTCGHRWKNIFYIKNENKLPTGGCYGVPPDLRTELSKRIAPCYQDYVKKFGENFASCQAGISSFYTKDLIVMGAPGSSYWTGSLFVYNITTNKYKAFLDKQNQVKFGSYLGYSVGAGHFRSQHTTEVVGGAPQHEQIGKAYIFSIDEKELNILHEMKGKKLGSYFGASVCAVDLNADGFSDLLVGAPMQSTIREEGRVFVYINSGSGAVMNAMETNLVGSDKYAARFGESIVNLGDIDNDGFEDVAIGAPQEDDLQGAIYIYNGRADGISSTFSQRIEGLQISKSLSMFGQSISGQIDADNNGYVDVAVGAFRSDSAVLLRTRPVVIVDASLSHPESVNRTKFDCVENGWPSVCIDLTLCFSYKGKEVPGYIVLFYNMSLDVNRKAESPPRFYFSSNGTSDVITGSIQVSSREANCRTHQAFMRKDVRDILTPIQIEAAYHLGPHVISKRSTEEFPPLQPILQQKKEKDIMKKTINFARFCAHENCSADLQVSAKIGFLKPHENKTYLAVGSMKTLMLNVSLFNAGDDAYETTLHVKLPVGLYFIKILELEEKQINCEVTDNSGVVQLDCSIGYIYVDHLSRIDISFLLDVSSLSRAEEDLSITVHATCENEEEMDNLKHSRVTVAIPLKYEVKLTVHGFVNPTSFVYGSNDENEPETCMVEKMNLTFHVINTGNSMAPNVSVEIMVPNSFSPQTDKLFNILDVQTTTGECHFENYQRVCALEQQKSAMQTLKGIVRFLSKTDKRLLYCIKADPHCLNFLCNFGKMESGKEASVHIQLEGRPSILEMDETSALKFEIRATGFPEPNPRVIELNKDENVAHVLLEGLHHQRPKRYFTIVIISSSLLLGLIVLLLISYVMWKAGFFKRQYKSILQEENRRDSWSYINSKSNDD
T1 sequence (P05556 21-798): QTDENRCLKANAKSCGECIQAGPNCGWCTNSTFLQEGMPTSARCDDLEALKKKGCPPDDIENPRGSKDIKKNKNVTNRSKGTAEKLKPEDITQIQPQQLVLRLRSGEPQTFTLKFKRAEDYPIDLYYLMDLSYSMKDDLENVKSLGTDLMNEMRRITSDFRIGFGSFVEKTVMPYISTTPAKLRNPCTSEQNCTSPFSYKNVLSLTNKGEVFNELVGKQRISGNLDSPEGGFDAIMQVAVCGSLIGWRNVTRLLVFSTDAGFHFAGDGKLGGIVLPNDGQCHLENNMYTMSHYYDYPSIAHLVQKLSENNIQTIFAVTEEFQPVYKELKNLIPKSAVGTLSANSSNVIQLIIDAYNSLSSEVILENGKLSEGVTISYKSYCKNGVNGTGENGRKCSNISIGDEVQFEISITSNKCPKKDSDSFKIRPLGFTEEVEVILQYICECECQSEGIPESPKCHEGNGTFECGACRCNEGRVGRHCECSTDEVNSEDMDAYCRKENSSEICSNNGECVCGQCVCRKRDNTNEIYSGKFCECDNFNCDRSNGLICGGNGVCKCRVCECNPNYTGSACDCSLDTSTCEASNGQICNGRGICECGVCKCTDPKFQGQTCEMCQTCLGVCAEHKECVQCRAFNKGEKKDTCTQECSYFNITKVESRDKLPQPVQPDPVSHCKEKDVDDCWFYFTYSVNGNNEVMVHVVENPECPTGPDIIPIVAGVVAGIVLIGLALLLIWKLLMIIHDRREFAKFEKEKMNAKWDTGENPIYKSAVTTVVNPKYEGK

| Compound | solubility [1, 3] [µg/mL] | solubility [1, 4] [µg/mL] | Ki [2] [nM] | IC50 [2] [nM] |
| --- | --- | --- | --- | --- |
| O=C(Nc1cc(F)c(CC(=O)N2C[C@@H](N3CC(N4CCCCC4)C3)C[C@H]2CO[C@H]2CC[C@H](C(=O)O)CC2)cc1Cl)c1csc2ccccc12 [Example 28, Trans-4-[1-[[4-[(benzo[b]thiophen-3-ylcarbonyl)amino]-5-chloro-2-fluorophenyl]acetyl]-(4S)-[3-(piperidin-1-yl)azetidin-1-yl]-(2S)-pyrrolidinylmethoxy]cyclohexanecarboxylic acid] | 1100 (≈ 1550 µM) | 1100 (≈ 1550 µM) | 2.6 | 12 |
| Cn1cc(C(=O)Nc2cc(Cl)c(CC(=O)N3C[C@@H](N4CC5CC4CN5C4CC4)C[C@H]3CO[C@H]3CC[C@H](C(=O)O)CC3)cc2Cl)c2ccccc21 (stereo partly drawn) [Example 164, Trans-4-[1-[[2,5-dichloro-4-[(1-methyl-1H-indol-3-ylcarbonyl)amino]phenyl]acetyl]-(4S)-[(1S,4S)-2-cyclopropyl-2,5-diazabicyclo[2.2.1]heptan-5-yl]-(2S)-pyrrolidinylmethoxy]cyclohexanecarboxylic acid] | 1000 (≈ 1380 µM) | 1000 (≈ 1380 µM) | 13 | 71 |
| O=C(Nc1cc(F)c(CC(=O)N2C[C@@H](N3CC(N4CCOCC4)C3)C[C@H]2CO[C@H]2CC[C@H](C(=O)O)CC2)cc1Cl)c1csc2ccccc12 [Example 27, Trans-4-[1-[[4-[(benzo[b]thiophen-3-ylcarbonyl)amino]-5-chloro-2-fluorophenyl]acetyl]-(4S)-[3-(4-morpholinyl)azetidin-1-yl]-(2S)-pyrrolidinylmethoxy]cyclohexanecarboxylic acid] | 1000 (≈ 1400 µM) | 1000 (≈ 1400 µM) | 3.8 | 43 |
| O=C(Nc1cc(F)c(CC(=O)N2C[C@@H](N3CC(CN4CCOCC4)C3)C[C@H]2CO[C@H]2CC[C@H](C(=O)O)CC2)cc1Cl)c1coc2ccccc12 [Example 30, Trans-4-[1-[[4-[(benzo[b]furan-3-ylcarbonyl)amino]-5-chloro-2-fluorophenyl]acetyl]-(4S)-[3-(4-morpholinylmethyl)azetidin-1-yl]-(2S)-pyrrolidinylmethoxy]cyclohexanecarboxylic acid] | 1100 (≈ 1550 µM) | 1100 (≈ 1550 µM) | 4.6 | 12 |
| O=C(Nc1cc(Cl)c(CC(=O)N2C[C@@H](N3CCCC3)C[C@H]2CO[C@H]2CC[C@H](C(=O)O)CC2)cc1Cl)c1csc2ccccc12 [Example 31, Trans-4-[1-[[4-[(benzo[b]thiophen-3-ylcarbonyl)amino]-2,5-dichlorophenyl]acetyl]-(4S)-(pyrrolidin-1-yl)-(2S)-pyrrolidinylmethoxy]cyclohexanecarboxylic acid] | 1840 (≈ 2800 µM) | 1680 (≈ 2560 µM) | 1.2 | 5.8 |
| CO[C@H]1CN([C@H]2C[C@@H](CO[C@H]3CC[C@H](C(=O)O)CC3)N(C(=O)Cc3cc(Cl)c(NC(=O)c4coc5ccccc45)cc3Cl)C2)C[C@H]1OC [Example 60, Trans-4-[1-[[4-[(benzo[b]furan-3-ylcarbonyl)amino]-2,5-dichlorophenyl]acetyl]-(4S)-(cis-3,4-dimethoxypyrrolidin-1-yl)-(2S)-pyrrolidinylmethoxy]cyclohexanecarboxylic acid] | 1000 (≈ 1420 µM) | 1000 (≈ 1420 µM) | 7.9 | 18 |
| O=C(Nc1cc(F)c(CC(=O)N2C[C@@H](N3CCC(N4CCOCC4)CC3)C[C@H]2CO[C@H]2CC[C@H](C(=O)O)CC2)cc1Cl)c1csc2ccccc12 [Example 110, Trans-4-[1-[[4-[(benzo[b]thiophen-3-ylcarbonyl)amino]-5-chloro-2-fluorophenyl]acetyl]-(4S)-[4-(morpholin-4-yl)piperidin-1-yl]-(2S)-pyrrolidinylmethoxy]cyclohexanecarboxylic acid] | > 2000 | > 2000 | 0.25 | 30 |
| COC[C@@H]1C[C@H](OC)CN1[C@H]1C[C@@H](CO[C@H]2CC[C@H](C(=O)O)CC2)N(C(=O)Cc2cc(Cl)c(NC(=O)c3cn(C)c4ccccc34)cc2Cl)C1 [Example 46, Trans-4-[1-[[2,5-dichloro-4-[(1-methyl-1H-indol-3-ylcarbonyl)amino]phenyl]acetyl]-(4S)-[(2S)-methoxymethyl-(4S)-methoxypyrrolidin-1-yl]-(2S)-pyrrolidinylmethoxy]cyclohexanecarboxylic acid] | 1200 (≈ 1640 µM) | 1200 (≈ 1640 µM) | 7.3 | 15 |
| CO[C@@H]1CCN([C@H]2C[C@@H](CO[C@H]3CC[C@H](C(=O)O)CC3)N(C(=O)Cc3cc(Cl)c(NC(=O)c4cn(C)c5ccccc45)cc3Cl)C2)C1 [Example 33, Trans-4-[1-[[2,5-dichloro-4-[(1-methyl-1H-indol-3-ylcarbonyl)amino]phenyl]acetyl]-(4S)-[(3R)-methoxypyrrolidin-1-yl]-(2S)-pyrrolidinylmethoxy]cyclohexanecarboxylic acid] | > 2000 | > 2000 | 5.6 | 20 |
| O=C(Nc1cc(Cl)c(CC(=O)N2C[C@@H](N3C[C@@H]4OCO[C@@H]4C3)C[C@H]2CO[C@H]2CC[C@H](C(=O)O)CC2)cc1Cl)c1coc2ccccc12 [Example 73, Trans-4-[1-[[4-[(benzo[b]furan-3-ylcarbonyl)amino]-2,5-dichlorophenyl]acetyl]-(4S)-[(3a,6a-cis)-tetrahydro[1,3]dioxolo[4,5-c]pyrrol-5-yl]-(2S)-pyrrolidinylmethoxy]cyclohexanecarboxylic acid] | 1000 (≈ 1460 µM) | 1000 (≈ 1460 µM) | 1.9 | 22 |
| CCO[C@@H]1CCN([C@H]2C[C@@H](CO[C@H]3CC[C@H](C(=O)O)CC3)N(C(=O)Cc3cc(Cl)c(NC(=O)c4csc5ccccc45)cc3F)C2)C1 [Example 34, Trans-4-[1-[[4-[(benzo[b]thiophen-3-ylcarbonyl)amino]-5-chloro-2-fluorophenyl]acetyl]-(4S)-[(3R)-ethoxypyrrolidin-1-yl]-(2S)-pyrrolidinylmethoxy]cyclohexanecarboxylic acid] | > 2000 | 1640 (≈ 2390 µM) | 2 | 9.9 |
| C[C@@H]1CN([C@H]2C[C@@H](CO[C@H]3CC[C@H](C(=O)O)CC3)N(C(=O)Cc3cc(Cl)c(NC(=O)c4cn(C)c5ccccc45)cc3F)C2)C[C@H](C)N1CCF [Example 147, Trans-4-[1-[[5-chloro-2-fluoro-4-[(1-methyl-1H-indol-3-ylcarbonyl)amino]phenyl]acetyl]-(4S)-[cis-2,6-dimethyl-1-(2-fluoroethyl)piperazin-4-yl]-(2S)-pyrrolidinylmethoxy]cyclohexanecarboxylic acid] | 1400 (≈ 1920 µM) | 1400 (≈ 1920 µM) | 3.2 | 12 |
| C[C@@H]1CN([C@H]2C[C@@H](CO[C@H]3CC[C@H](C(=O)O)CC3)N(C(=O)Cc3ccc(NC(=O)c4nccc5ccccc45)c(Cl)c3)C2)C[C@H](C)O1 [Example 86, Trans-4-[1-[[3-chloro-4-[(isoquinolin-1-ylcarbonyl)amino]phenyl]acetyl]-(4S)-(cis-2,6-dimethylmorpholin-4-yl)-(2S)-pyrrolidinylmethoxy]cyclohexanecarboxylic acid] | 1300 (≈ 1960 µM) | 1200 (≈ 1810 µM) | 4.5 | 27 |
